The test system of data set [1] is patients suffering from myotonic dystrophy. The data set can be described thus: Oral modafinil treatment of a series of patients with myotonic dystrophy and diurnal hypersomnia, subjective effect. The format is in vivo, human. Conditions: oral doses of between 100 and 400 mg/day; majority of patients.
The conditions of data set [2]: cited from earlier work.
The test system of data set [3] is patients suffering from Steinert's disease. The experiment in a line: Karolinska KSS somnolence scale in patients suffering from Steinert's disease. Format: in vivo, human. The source says: In the second patient of this series, the telling morphotype and a myotony of both hands associated with muscular deficiency existed. Without treatment, diurnal hypersomnia was very pronounced (Epworth scale: 16).

A further data set relates to dopamine. Conditions: within the dose ranges which modify consciousness; cited from earlier work.
Data set [4] relates to patient suffering from Steinert's disease. The data set can be described thus: Epworth somnolence scale in a patient suffering from Steinert's disease. Format: in vivo, human. To be noted: score before treatment 20. How it is done:
By way of example, in a patient suffering from Steinert's disease, which is characterized, inter alia, by a temporal atrophy, ptosis, a myotony associated with muscle weakness, behavioural disorders and somnolence (the start of which went back to 1988) with sleep paralyses, without hypnogogic hallucinations or attacks of cataplexy, a decrease was observed of 18 units on the Epworth somnolence scale (see Johns M. W. Sleep, 1991, 14, 540) after treatment with an oral dose of 100 mg per day of modafinil for six months, between February 1999 (score on the Epworth scale=20) and August 1999 (score on the Epworth scale=2).

In the next data set the test system is c-fos proto-oncogene. Conditions: cats, awakening doses; Lin et al. PNAS 1996; cited from earlier work.
The test system of data set [5] is patients suffering from Steinert's disease (myotonic dystrophy). To be noted: cited from earlier work.

The structures appear in SMILES notation.

These results are taken from patent publication US6462089B1, “Method for correcting the vigilance disorders associated with myopathies” (priority 2000, dated 2002).

For the compound `NC(=O)C[S+]([O-])C(c1ccccc1)c1ccccc1` (stereo not shown) [modafinil, benzhydrylsulphinylacetamide], the “effect of treatment on vigilance disorders and diurnal somnolence” value in data set [1] was “subjectively effective”. Also, the “generalization of the effects with amphetamine” value in data set [2] (addictive substance discrimination tests) was “very weak”. In data set [2] (in vivo), the “self-administration and preference of place” value was “leads neither to self-administration nor to preference of place”; the self-administration of cocaine result is “does not modify”. Further, the “personal and professional daily life” value in data set [3] (patient, dose 200 mg/day) is recorded as “considerable improvement”. Besides, in data set [3] (patient, dose 200 mg/day, before: 8), the “somnolence score on the Karolinska KSS scale after treatment” value came out at 2. In data set [3] (second patient, dose 600 mg/day), the diurnal somnolence attacks result was “partial resolution”. The “somnolence score on the Karolinska scale after treatment” value in data set [3] (second patient, dose 600 mg/day, before: 8) was 4. The effect on dopamine result in the data set on dopamine is “no effect”. For the same compound, in data set [4] (oral dose of 100 mg per day for six months (August 1999)), the “score on the Epworth scale after treatment” value was 2. In addition, the “decrease on the Epworth somnolence scale” value in data set [4] (oral dose of 100 mg per day for six months) is 18 units. In addition, in the data set on c-fos proto-oncogene, the “expression of c-fos proto-oncogene in the central dopaminergic projection zones (including the cortex)” value (“expression of c-fos proto-oncogene” for short) is listed as “not expressed”.

As for `COC(=O)C(c1ccccc1)C1CCCCN1` (stereo not shown) [methylphenidate], the “expression of c-fos proto-oncogene” value with c-fos proto-oncogene was “highly expressed”. In addition, the level of consciousness entry in data set [5] (Van der Meché et al. 1986) is “improvement in the level of consciousness was observed”.

Consider `C#CCN(C)[C@H](C)Cc1ccccc1` [selegiline], for which the “effectiveness on diurnal hypersomnolence” value in data set [5] (dose of 20 mg/day, Antonini et al. 1997) is on record as “ineffective”.

Take `C[C@H](N)Cc1ccccc1` [d-amphetamine]: the “expression of c-fos proto-oncogene” value in the data set on c-fos proto-oncogene is listed as “highly expressed”.
